Reference: patent publication US8063225B2, “Tricyclic compound derivatives useful in the treatment of neoplastic diseases, inflammatory disorders and immunomodulatory disorders” (Chembridge Corporation, priority 2006, dated 2011)
pIC50: −log10 of the molar value.

Columns and labels:
[1] = molecular target: T1, IGF1R tyrosine kinase (Homo sapiens, UniProt P08069); assay: IGF1R tyrosine kinase assay (Kinase-Glo ATP depletion or PT66/PT100 AlphaScreen); conditions: biochemical tyrosine kinase assay
T1 construct: 6×His- or GST-tagged kinase domain fragments of the corresponding RTKs expressed in baculovirus system; host or cells: baculovirus system
Outline: (§1)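 Luminescence of remaining ATP (Kinase-Glo) or anti-phosphotyrosine AlphaScreen proximity signal served as read-out. Reactions held purified tagged kinase domain, poly(Glu-Tyr) substrate and 10 μM ATP at pH 7.5. IC50 values came from non-linear regression fits.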

[2] = molecular target: T2, InsR (Homo sapiens, UniProt P06213); assay: Tyrosine kinase assay (Kinase-Glo or AlphaScreen), InsR; conditions: biochemical tyrosine kinase assay
T2 construct: 6×His- or GST-tagged kinase domain fragments of the corresponding RTKs expressed in baculovirus system; host or cells: baculovirus system
Outline: as §1

[3] = molecular target: T3, Alk (Homo sapiens, UniProt Q9UM73); assay: Tyrosine kinase assay (Kinase-Glo or AlphaScreen), Alk; conditions: biochemical tyrosine kinase assay
T3 construct: 6×His- or GST-tagged kinase domain fragments of the corresponding RTKs expressed in baculovirus system; host or cells: baculovirus system
Outline: as §1

[4] = system: H929 (multiple myeloma); assay: Cell proliferation inhibition, Cell Titer-Glo, H929; format: cell-based; conditions: Homo sapiens, NCI-H929; cell proliferation assay, H929 cells
Outline: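 Cells seeded at 2500-5000 per well with serially diluted compound for typically 3 days. Viable cells measured by ATP luminescence (Cell Titer-Glo); IC50 from proliferation-inhibition curves.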

[5] = system: K562; assay: Cell proliferation inhibition, Cell Titer-Glo, K562; format: cell-based; conditions: Homo sapiens; cell proliferation assay, K562 cells
Outline: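 K562 cells were seeded at 2500-5000 cells per well in white, clear-bottomed 384-well culture plates and treated with dilutions of test compounds for typically 3 days. Viable cells were quantified with the Cell Titer-Glo Luminescent Cell Viability Assay (Promega), which measures total ATP, read on a luminescence plate reader to derive IC50 values for proliferation inhibition.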

T1 sequence (P08069 999-1274 limits assumed): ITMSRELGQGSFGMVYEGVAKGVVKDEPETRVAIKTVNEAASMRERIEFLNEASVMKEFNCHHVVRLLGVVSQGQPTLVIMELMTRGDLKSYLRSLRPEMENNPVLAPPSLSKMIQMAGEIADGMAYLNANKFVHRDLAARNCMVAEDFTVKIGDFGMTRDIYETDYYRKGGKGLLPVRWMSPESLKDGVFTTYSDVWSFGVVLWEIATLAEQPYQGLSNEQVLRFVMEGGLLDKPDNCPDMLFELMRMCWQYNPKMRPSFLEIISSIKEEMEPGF
T2 sequence (P06213 1023-1298 limits assumed, species assumed): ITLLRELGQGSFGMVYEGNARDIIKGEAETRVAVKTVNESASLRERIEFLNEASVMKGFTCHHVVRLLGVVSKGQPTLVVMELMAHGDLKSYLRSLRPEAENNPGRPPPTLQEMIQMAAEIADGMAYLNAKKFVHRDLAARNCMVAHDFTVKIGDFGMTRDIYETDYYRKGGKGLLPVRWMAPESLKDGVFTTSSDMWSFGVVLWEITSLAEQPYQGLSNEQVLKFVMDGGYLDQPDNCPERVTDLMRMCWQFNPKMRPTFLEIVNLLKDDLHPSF
T3 sequence (Q9UM73 1116-1392 limits assumed, species assumed): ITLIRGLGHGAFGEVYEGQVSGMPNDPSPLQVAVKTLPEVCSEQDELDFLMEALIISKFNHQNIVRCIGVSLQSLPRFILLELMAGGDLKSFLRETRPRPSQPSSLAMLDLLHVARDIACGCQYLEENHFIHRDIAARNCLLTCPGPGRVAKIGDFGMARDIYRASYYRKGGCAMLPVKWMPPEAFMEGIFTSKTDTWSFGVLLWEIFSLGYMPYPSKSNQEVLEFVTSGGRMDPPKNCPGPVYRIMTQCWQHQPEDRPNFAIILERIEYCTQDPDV

Q: What does the source list for `COc1ccc(OC[C@H](O)CNc2cc[nH]c(=O)c2-c2nc3cc4c(cc3[nH]2)C(=O)N(C2CCN(C)CC2)C4=O)c(OC)c1OC` [compound 93]?
A: pIC50 [1]: > 6.30; pIC50 [2]: > 6.30; pIC50 [3]: < 4.82; pIC50 [4]: 5.30 to 6.30; pIC50 [5]: < 4.82

Q: `Cc1ccc(OC[C@@H](O)CNc2cc[nH]c(=O)c2-c2nc3cc4c(cc3[nH]2)C(=O)N([C@H]2CCN(C)C2)C4=O)c(C)c1` [compound 106] was tested. Which pIC50 [1] did it give?
A: Its pIC50 is greater than 6.30.

Q: And the pIC50 [2]?
A: Its pIC50 is greater than 6.30.

Q: What about the pIC50 [3] of the same compound?
A: Its pIC50 is 5.30 to 6.30.

Q: And the pIC50 [4]?
A: Its pIC50 is 4.82 to 5.30.

Q: What about the pIC50 [5] of the same compound?
A: The pIC50 was 4.82 to 5.30.

Q: How did the pIC50 [1] turn out when `O=C1c2cc3nc(-c4c(NC[C@@H](O)c5cccc(Cl)c5)cc[nH]c4=O)[nH]c3cc2C(=O)N1[C@@H]1CN2CCC1CC2` [compound 33] was run?
A: Its pIC50 is greater than 6.30.

Q: And the pIC50 [2]?
A: The pIC50 was greater than 6.30.

Q: And the pIC50 [3]?
A: Its pIC50 is 5.30 to 6.30.

Q: And the pIC50 [5]?
A: Its pIC50 is 5.30 to 6.30.

Q: `CN1CCC(N2C(=O)c3cc4nc(-c5c(NC[C@@H](O)COc6cccc(Cl)c6F)cc[nH]c5=O)[nH]c4cc3C2=O)CC1` [compound 96] was tested. Which pIC50 [1] did it give?
A: Its pIC50 is 5.30 to 6.30.

Q: And the pIC50 [2]?
A: The pIC50 was greater than 6.30.

Q: And the pIC50 [3]?
A: The pIC50 was less than 4.82.

Q: And the pIC50 [4]?
A: The pIC50 was 4.82 to 5.30.

Q: What about the pIC50 [5] of the same compound?
A: Its pIC50 is less than 4.82.

Q: How did the pIC50 [1] turn out when `O=C1c2cc3nc(-c4c(NC[C@@H](O)c5cccc(Cl)c5)cc[nH]c4=O)[nH]c3cc2C(=O)N1C[C@@H]1CCCO1` [compound 29] was run?
A: Its pIC50 is less than 4.82.

Q: And the pIC50 [2]?
A: The pIC50 was less than 4.82.

Q: What about the pIC50 [3] of the same compound?
A: The pIC50 was less than 4.82.

Q: And the pIC50 [5]?
A: Its pIC50 is 5.30 to 6.30.

Q: `CN1CCC(N2C(=O)c3cc4nc(-c5c(N[C@H](CO)Cc6c[nH]cn6)cc[nH]c5=O)[nH]c4cc3C2=O)CC1` [compound 2] was tested. Which pIC50 [1] did it give?
A: Its pIC50 is less than 4.82.

Q: What about the pIC50 [2] of the same compound?
A: The pIC50 was less than 4.82.

Q: And the pIC50 [3]?
A: Its pIC50 is less than 4.82.

Q: What about the pIC50 [5] of the same compound?
A: Its pIC50 is 4.82 to 5.30.

Q: How did the pIC50 [1] turn out when `CC(C)(CO)CN1C(=O)c2cc3nc(-c4c(NC[C@@H](O)c5cccc(Cl)c5)cc[nH]c4=O)[nH]c3cc2C1=O` [compound 26] was run?
A: The pIC50 was 5.30 to 6.30.

Q: And the pIC50 [2]?
A: The pIC50 was 4.82 to 5.30.

Q: What about the pIC50 [3] of the same compound?
A: Its pIC50 is less than 4.82.

Q: What about the pIC50 [5] of the same compound?
A: The pIC50 was 4.82 to 5.30.

Q: Which results are given for `Cc1cc(C)n(C[C@H](O)CNc2cc[nH]c(=O)c2-c2nc3cc4c(cc3[nH]2)C(=O)N(C2CCN(C)CC2)C4=O)n1` [compound 92]?
A: pIC50 [1]: 4.82 to 5.30; pIC50 [2]: 4.82 to 5.30; pIC50 [3]: < 4.82; pIC50 [5]: < 4.82

Q: How did the pIC50 [1] turn out when `Cc1ccc(OC[C@H](O)CNc2cc[nH]c(=O)c2-c2nc3cc4c(cc3[nH]2)C(=O)N(C2CCN(C)CC2)C4=O)cc1Cl` [compound 99] was run?
A: The pIC50 was greater than 6.30.

Q: What about the pIC50 [2] of the same compound?
A: The pIC50 was 5.30 to 6.30.

Q: What about the pIC50 [3] of the same compound?
A: The pIC50 was 4.82 to 5.30.

Q: And the pIC50 [5]?
A: The pIC50 was less than 4.82.

Q: `Cc1ccc(OC[C@H](O)CNc2cc[nH]c(=O)c2-c2nc3cc4c(cc3[nH]2)C(=O)N(C2CCNCC2)C4=O)c(C)c1` [compound 142] was tested. Which pIC50 [1] did it give?
A: Its pIC50 is greater than 6.30.

Q: What about the pIC50 [2] of the same compound?
A: Its pIC50 is greater than 6.30.

Q: What about the pIC50 [3] of the same compound?
A: Its pIC50 is 5.30 to 6.30.

Q: What about the pIC50 [5] of the same compound?
A: The pIC50 was 4.82 to 5.30.

Q: `CCN1CCC(N2C(=O)c3cc4nc(-c5c(NC[C@@H](O)COc6ccc(C)cc6C)cc[nH]c5=O)[nH]c4cc3C2=O)CC1` [compound 143] was tested. Which pIC50 [1] did it give?
A: Its pIC50 is greater than 6.30.

Q: And the pIC50 [2]?
A: Its pIC50 is 5.30 to 6.30.

Q: And the pIC50 [3]?
A: Its pIC50 is greater than 6.30.

Q: What about the pIC50 [4] of the same compound?
A: The pIC50 was 4.82 to 5.30.

Q: With `O=C1c2cc3nc(-c4c(NC[C@@H](O)c5cccc(Cl)c5)cc[nH]c4=O)[nH]c3cc2C(=O)N1CCc1ccncc1` [compound 28] as the compound, how does the pIC50 [1] read?
A: The pIC50 was less than 4.82.

Q: And the pIC50 [2]?
A: The pIC50 was 4.82 to 5.30.

Q: And the pIC50 [3]?
A: Its pIC50 is 4.82 to 5.30.

Q: What about the pIC50 [5] of the same compound?
A: Its pIC50 is less than 4.82.

Q: `Cc1ccc(OC[C@@H](O)CNc2cc[nH]c(=O)c2-c2nc3cc4c(cc3[nH]2)C(=O)N(C2CCN(C)CC2)C4=O)c(C)c1` [compound 64] was tested. Which pIC50 [1] did it give?
A: Its pIC50 is greater than 6.30.

Q: What about the pIC50 [2] of the same compound?
A: Its pIC50 is 5.30 to 6.30.

Q: And the pIC50 [3]?
A: Its pIC50 is 4.82 to 5.30.

Q: And the pIC50 [5]?
A: Its pIC50 is 4.82 to 5.30.

Q: `Cc1ccc(Cl)c(C)c1OC[C@H](O)CNc1cc[nH]c(=O)c1-c1nc2cc3c(cc2[nH]1)C(=O)N(C1CCN(C)CC1)C3=O` [compound 111] was tested. Which pIC50 [1] did it give?
A: The pIC50 was 5.30 to 6.30.

Q: And the pIC50 [2]?
A: The pIC50 was 5.30 to 6.30.

Q: What about the pIC50 [3] of the same compound?
A: Its pIC50 is 5.30 to 6.30.

Q: And the pIC50 [5]?
A: Its pIC50 is less than 4.82.

Q: How did the pIC50 [1] turn out when `COc1cccc(OCC(O)CNc2cc[nH]c(=O)c2-c2nc3cc4c(cc3[nH]2)C(=O)N(C2CCN(C)CC2)C4=O)c1` (stereo not drawn) [compound 6] was run?
A: Its pIC50 is greater than 6.30.

Q: What about the pIC50 [2] of the same compound?
A: The pIC50 was 5.30 to 6.30.

Q: What about the pIC50 [3] of the same compound?
A: Its pIC50 is 5.30 to 6.30.

Q: What about the pIC50 [4] of the same compound?
A: Its pIC50 is 4.82 to 5.30.

Q: Which results are given for `Cc1cc(C)c(OC[C@H](O)CNc2cc[nH]c(=O)c2-c2nc3cc4c(cc3[nH]2)C(=O)N(C2CCN(C)CC2)C4=O)cc1Cl` [compound 108]?
A: pIC50 [1]: 5.30 to 6.30; pIC50 [2]: 5.30 to 6.30; pIC50 [3]: 5.30 to 6.30
